Source: patent US20260109684A1, “QUINOLINE COMPOUNDS AS MODULATORS OF RAGE ACTIVITY AND USES THEREOF” (NEW YORK UNIVERSITY, priority 2022, published 2026)

Tests used:
ctRAGE = target: T1, ctRAGE (Homo sapiens, UniProt Q15109); assay: Fluorescence binding titration assay (native tryptophan fluorescence); settings: 20 nM ctRAGE, 10 mM phosphate buffer pH 7.0, 5% DMSO
T1 construct: The cytoplasmic domain of RAGE, C terminal RAGE or ctRAGE (RAGE tail)
T1 sequence (Q15109 364-404 limits assumed): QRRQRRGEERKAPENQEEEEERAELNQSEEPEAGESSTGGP
Procedure: Native tryptophan fluorescence experiments were conducted using a Horiba Jobin Yvon Fluorolog spectrofluorometer. 1 mM of a compound was dissolved in 10 mM phosphate buffer [pH 7.0] and 50% DMSO. 20 nM ctRAGE solution was individually titrated from 0.1 nM-100 μM with the compounds in 100 μL of 10 mM phosphate buffer [pH 7.0] and 5% DMSO. The excitation and emission wavelengths were 280 nm and 352 nm, respectively. Dissociation constants, Kd, were estimated from the changes in peak fluorescence intensities as a function of the free compound concentration by using Prism 6 software (GraphPad). Data were fit to the equation, (F−F0)/Fmax=[compound]/(Kd+[compound]) where F is the fluorescence intensity at a given compound concentration, F0 is the fluorescence intensity of the blank, and Fmax is the maximum fluorescence intensity.

[1] = test system: Murine primary aortic smooth muscle cells (SMC); assay: Murine primary aortic smooth muscle cell (SMC) migration, wounding assay; type: cell-based, mice; settings: Mus musculus; inhibition of migration; compounds incubated 1.5 h, then CML-AGE (10 μg/ml) or PDGF-BB (10 ng/ml) for 4 h
Procedure: Murine SMCs were cultured from the aortas of 10-week old male mice as described in M. B. Manigrasso, J. Pan, V. Rai, J. Zhang, S. Reverdatto, N. Quadri, R. J. DeVita, R. Ramasamy, A. Shekhtman, A. M. Schmidt, Small Molecule Inhibition of Ligand-Stimulated RAGE-DIAPH1 Signal Transduction. Scientific reports 6, 22450 (2016). Wild-type murine aortic SMCs were isolated and used between passages 8 to 12. Migration in response to the RAGE ligand CML-AGE (CML, 10 μg/ml) or a general effector, not a RAGE ligand, PDGF-BB, 10 ng/ml (R&D systems) was assessed with a wounding assay as also described in M. B. Manigrasso, J. Pan, V. Rai, J. Zhang, S. Reverdatto, N. Quadri, R. J. DeVita, R. Ramasamy, A. Shekhtman, A. M. Schmidt, Small Molecule Inhibition of Ligand-Stimulated RAGE-DIAPH1 Signal Transduction. Scientific reports 6, 22450 (2016). Briefly, cells were grown to confluence in 24-well plates and starved overnight. The following morning, serum free media (SFM) was removed and compounds were added per dose response. Immediately following the addition of compounds, the monolayer was wounded using a p10 pipette tip. The compounds were allowed to incubate for 1.5 h. Following this incubation, all compounds were removed and fresh media containing RAGE ligand, CML-AGE (10 μg/ml), or general effector, PDGF-BB (10 ng/ml), was added for 4 h. Cells were maintained at 37° C. and 5% CO2. Images were taken at 4 h. Each image was measured, and an area ingrowth of effective migrating cells was calculated. Results are shown in FIGS. 12-20 and Table 2 below.

ob ob mice = assay: Wound healing of full thickness excisional wounds in ob ob mice; type: in vivo; settings: male and female ob ob mice; 5 mg/kg twice daily topical, day 3 through day 10; days 14 and 21 post-surgery
Procedure: RAGE 406R was tested in male and female ob ob mice (model of obesity and type 2 diabetes) for potential benefits in wound healing. Full thickness excisional wounds were created on the backs of 8 week old ob ob mice, as described in Manigrasso et al., “Small-molecule antagonism of the interaction of the RAGE cytoplasmic domain with DIAPH1 reduces diabetic complications in mice,” Sci Transl Med. 13 (621):eabf7084 (2021). Beginning on day 3 after the surgery, mice received RAGE 406R (5 mg/kg) twice daily by topical administration under the Tegaderm through day 10 post-operatively. The wounds were photographed on days 0, 7, 14, and 21 and the % wound closure (compared to baseline) was calculated for each mouse. The Mean+/−Standard Error of the Mean is shown in FIGS. 23A-B along with representative images (FIGS. 23C-D).

Compound	Kd (ctRAGE) [nM]	IC50 [1] [nM]	% wound closure compared to vehicle-treated animals (ob ob mice)
N#Cc1ccc2c(CN3CCOCC3)cc(-c3ccc(C4CCC(=O)N4)cc3)nc2c1 (racemic) [RAGE 406]	3	28	–
N#Cc1ccc2c(CN3CCOCC3)cc(-c3ccc(C(N)=O)cc3)nc2c1 [RAGE 283]	1	2.6	–
N#Cc1ccc2c(CN3CCOCC3)cc(-c3ccc(CN)cc3)nc2c1 [RAGE 286, 2-(4-(aminomethyl)phenyl)-4-(morpholinomethyl)quinoline-7-carbonitrile]	20	270	–
CC(=O)NCc1ccc(-c2cc(C(=O)N3CCOCC3)c3ccc(C#N)cc3n2)cc1 [RAGE 289, N-(4-(7-cyano-4-(morpholine-4-carbonyl)quinolin-2-yl)benzyl) acetamide]	3	18	–
N#Cc1ccc2c(CN3CCOCC3)cc(-c3ccc(C(=N)N)cc3)nc2c1 [RAGE 290]	1	6	–
N#Cc1ccc2c(CN3CCOCC3)cc(-c3ccc(CC(N)=O)cc3)nc2c1 [RAGE 291]	12	–	–
CN(C)Cc1ccc(-c2cc(CN3CCOCC3)c3ccc(C#N)cc3n2)cc1 [RAGE 299]	8	93	–
N#Cc1ccc2c(CN3CCOCC3)cc(-c3ccc(CN4CCCC4)cc3)nc2c1 [RAGE 401]	–	905	–
N#Cc1ccc2c(CN3CCOCC3)cc(-c3ccc(CCN)cc3)nc2c1 [RAGE 402, 2-(4-(2-aminoethyl)phenyl)-4-(morpholinomethyl)quinoline-7-carbonitrile]	3	136	–
N#Cc1ccc2c(CN3CCOCC3)cc(-c3ccc([C@H]4CCC(=O)N4)cc3)nc2c1 [RAGE 406R]	0.6	1	significantly higher wound closure
N#Cc1ccc2c(CN3CCOCC3)cc(-c3ccc([C@@H]4CCC(=O)N4)cc3)nc2c1 [RAGE 406S]	2	1160	–
N#Cc1ccc2c(C(=O)N3CCOCC3)cc(-c3ccc(C4CCCN4)cc3)nc2c1 (centres unmarked) [RAGE 407]	2	153	–
